Read-outs that look alike come from different tables or passages of the source.
Experiments:
[1] = Affinity to phospholipids by IAM-HPLC (IAM.PC.DD2 column); type: physicochemical
Method: (§1) Elution was conducted under the following conditions:
(§2) The injected volume was 10 μL. […] Each sample was analyzed three times.

human serum albumin = human serum albumin (Homo sapiens, UniProt P02768)
Method: Each column was equipped with an appropriate precolumn. Elution was conducted under the following conditions:

[2] = Chromatographic lipophilicity by RP-HPLC on C18 column (CHIC18); type: physicochemical
Method: as §1, §2

[3] = IAM.PC.DD2 column, acetonitrile gradient, 50 mM ammonium acetate pH 7.4, 30 °C
[4] = HSA column, isopropanol gradient, 50 mM ammonium acetate pH 7.4, 30 °C
[5] = C18 XTERRA RP18 column, acetonitrile gradient, 50 mM ammonium acetate pH 7.4, 30 °C

Chain of human serum albumin (P02768 25-609): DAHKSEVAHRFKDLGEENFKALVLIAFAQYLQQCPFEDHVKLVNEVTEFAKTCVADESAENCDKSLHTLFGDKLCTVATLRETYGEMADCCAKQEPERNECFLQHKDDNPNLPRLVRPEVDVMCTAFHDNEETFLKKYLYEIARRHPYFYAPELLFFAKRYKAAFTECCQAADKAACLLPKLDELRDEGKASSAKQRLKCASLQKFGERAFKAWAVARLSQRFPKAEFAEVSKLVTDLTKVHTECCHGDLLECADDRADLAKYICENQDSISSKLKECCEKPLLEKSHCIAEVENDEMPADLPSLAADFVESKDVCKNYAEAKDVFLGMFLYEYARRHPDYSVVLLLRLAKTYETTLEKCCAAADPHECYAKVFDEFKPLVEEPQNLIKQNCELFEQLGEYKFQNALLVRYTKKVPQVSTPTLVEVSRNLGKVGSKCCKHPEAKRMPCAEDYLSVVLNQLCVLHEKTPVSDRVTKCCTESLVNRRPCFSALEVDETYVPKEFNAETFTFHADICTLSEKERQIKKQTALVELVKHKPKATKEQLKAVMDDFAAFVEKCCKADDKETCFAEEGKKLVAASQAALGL

Molecule | CHIIAM (chromatographic hydrophobicity index of IAM-HPLC) [1, 3] | %HSA (binding to HSA) (human serum albumin; [4]) | LogkHSA (chromatographically determined affinity to HSA-HPLC) (human serum albumin; [4]) | CHIC18 (chromatographic hydrophobicity index of RP-HPLC) [2, 5] | further results
CCOP(=S)(OCC)SCn1nnc2ccccc2c1=O [Azinphos-ethyl] | 37.81 | 92.07% | 1.01 | 95.69 | 
COP(=S)(OC)SCn1nnc2ccccc2c1=O [Azinphos-methyl] | 33.18 | 86.70% | 0.78 | 83.47 | 
CCOP(=O)(OCC)OC(=CCl)c1ccc(Cl)cc1Cl [Chlorfenvinphos] | 38.13 | 85.54% | 0.74 | 97.18 | 
CCOP(=S)(OCC)Oc1cc(C)nc(C(C)C)n1 [Diazinon] | 39.34 | 81.33% | 0.62 | 105.98 | CHIC18 (chromatographic hydrophobicity index of RP-HPLC) ([2]; C18 XTERRA RP18 column, acetonitrile gradient, 50 mM ammonium acetate pH 7.4, 30 °C, listed as diazinon): remarkably high lipophilicity
COP(=O)(OC)OC=C(Cl)Cl [Dichlorvos] | 16.56 | 65.86% | 0.27 | 23.17 | CHIC18 (chromatographic hydrophobicity index of RP-HPLC) ([2]; C18 XTERRA RP18 column, acetonitrile gradient, 50 mM ammonium acetate pH 7.4, 30 °C, listed as dichlorvos): low lipophilicity
CCOP(=S)(OCC)SCCSCC [Disulfoton] | 42.34 | 92.86% | 1.06 | 108.97 | CHIIAM (chromatographic hydrophobicity index of IAM-HPLC) ([1]; IAM.PC.DD2 column, acetonitrile gradient, 50 mM ammonium acetate pH 7.4, 30 °C, listed as disulfoton): highest CHIIAM values; CHIC18 (chromatographic hydrophobicity index of RP-HPLC) ([2]; C18 XTERRA RP18 column, acetonitrile gradient, 50 mM ammonium acetate pH 7.4, 30 °C, listed as disulfoton): remarkably high lipophilicity
CCCSP(=O)(OCC)SCCC [Ethoprophos] |  |  |  |  | CHIIAM (chromatographic hydrophobicity index of IAM-HPLC) ([1]; pH 7.4): 32.41; %HSA (binding to HSA) (human serum albumin; human, pH 7.4): 28.35%; LogkHSA (chromatographically determined affinity to HSA-HPLC) (human serum albumin; human, pH 7.4): −0.41; CHIC18 (chromatographic hydrophobicity index of RP-HPLC) ([2]; pH 7.4): 88.39
COP(=S)(OC)Oc1ccc([N+](=O)[O-])c(C)c1 [Fenitrothion] | 38.10 | 91.78% | 1.00 | 93.49 | 
COP(=S)(OC)Oc1ccc(SC)c(C)c1 [Fenthion] | 42.37 | 96.04% | 1.29 | 102.16 | CHIIAM (chromatographic hydrophobicity index of IAM-HPLC) ([1]; IAM.PC.DD2 column, acetonitrile gradient, 50 mM ammonium acetate pH 7.4, 30 °C, listed as fenthion): highest CHIIAM values; %HSA (binding to HSA) (human serum albumin; HSA column, isopropanol gradient, 50 mM ammonium acetate pH 7.4, 30 °C, listed as fenthion): highest protein-binding capacity
CCOC(=O)N(C)C(=O)CSP(=S)(OCC)OCC [Mecarbam] | 35.77 | 74.23% | 0.44 | 97.09 | 
COP(=O)(OC)OC(Br)C(Cl)(Cl)Br (centres unmarked) [Naled] | 29.79 | 43.86% | −0.11 | 31.32 | CHIC18 (chromatographic hydrophobicity index of RP-HPLC) ([2]; C18 XTERRA RP18 column, acetonitrile gradient, 50 mM ammonium acetate pH 7.4, 30 °C, listed as naled): low lipophilicity
CCOP(=O)(OCC)Oc1ccc([N+](=O)[O-])cc1 [Paraoxon-ethyl] | 25.34 | 27.68% | −0.42 | 72.54 | 
COP(=S)(OC)Oc1ccc([N+](=O)[O-])cc1 [Parathion-methyl] | 35.54 | 87.94% | 0.83 | 88.75 | 
CCOP(=S)(OCC)SCSCC [Phorate] | 42.43 | 93.08% | 1.07 | 108.36 | CHIIAM (chromatographic hydrophobicity index of IAM-HPLC) ([1]; IAM.PC.DD2 column, acetonitrile gradient, 50 mM ammonium acetate pH 7.4, 30 °C, listed as phorate): highest CHIIAM values
COP(=S)(OC)SCN1C(=O)c2ccccc2C1=O [Phosmet] | 33.89 | 87.23% | 0.80 | 85.39 | 
CCOP(=S)(OCC)Oc1cnc2ccccc2n1 [Quinalphos] | 39.40 | 91.23% | 0.97 | 101.01 | CHIC18 (chromatographic hydrophobicity index of RP-HPLC) ([2]; C18 XTERRA RP18 column, acetonitrile gradient, 50 mM ammonium acetate pH 7.4, 30 °C, listed as quinalphos): remarkably high lipophilicity
Chlorpyrifos-oxon | 24.96 |  | 0.68 | 39.17 | %HSA (binding to HSA) (human serum albumin; pH 7.4): 83.49%

From publication PMC11898958, “Application of Biomimetic Chromatography and QSRR Approach for Characterizing Organophosphate Pesticides” (International Journal of Molecular Sciences, 2025)
